One may read the EC50 as the concentration that produces a half-maximal response. Read a low EC50 as a more potent agent. Usually Emax stands for the size of the effect at its maximum, as opposed to the concentration needed.

This is an account of results in patent publication US20260034119A1, “5-METHOXY-N,N-[…][…], THEIR […], AND METHODS FOR TREATMENT OF NEUROLOGICAL, […], AND SUBSTANCE USE DISORDERS” (priority 2023, published 2026).

Series [1] in a line: Mouse brain tissue binding. The class given is in vitro ADME.
Series [2] has as its target T1, 5-HT1A (Homo sapiens, UniProt P08908). The experiment in a line: BRET signaling assay: 5-HT1A-mediated activation of heterotrimeric Gi1 (TRUPATH, HEK293-T). As to conditions: for Efficacy as %5HT 5-HT1A BRET Gi1: Table 6, commercial ligands. (BRET reads energy transfer from a luciferase to a nearby fluorophore.)
The target of series [3] is T2, 5-HT2A (Homo sapiens, UniProt P28223). As to conditions: for Efficacy as %5HT 5-HT2A BRET Gq: Table 6, commercial ligands.
Series [4] concerns the target T3, human 5-HT1A (Homo sapiens, UniProt P08908).
T3 sequence (P08908 1-422): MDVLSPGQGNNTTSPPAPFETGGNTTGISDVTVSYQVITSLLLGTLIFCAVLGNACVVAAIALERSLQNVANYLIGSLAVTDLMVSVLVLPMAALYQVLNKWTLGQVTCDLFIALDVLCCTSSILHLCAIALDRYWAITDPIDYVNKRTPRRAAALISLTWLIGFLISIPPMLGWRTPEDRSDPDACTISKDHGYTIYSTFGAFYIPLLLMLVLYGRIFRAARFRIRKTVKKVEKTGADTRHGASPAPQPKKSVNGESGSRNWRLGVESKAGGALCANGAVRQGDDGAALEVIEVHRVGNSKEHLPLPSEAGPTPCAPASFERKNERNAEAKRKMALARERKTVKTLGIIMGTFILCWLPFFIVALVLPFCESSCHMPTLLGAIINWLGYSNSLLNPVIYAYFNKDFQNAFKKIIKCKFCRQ
The series can be described thus: 5-HT1A-mediated cAMP reduction assay (GloSensor, HEK293-T).

Another series has as its target 5-HT2B (Homo sapiens, UniProt P41595). The experiment in a line: IP1 functional assay 5-HT2B. The class given is cell-based. To be noted: for Emax: read-out: 5-HT2B (IP1) Emax (%5-HT), Table 3.
Series [5] addresses T2, 5-HT2A. The experiment in a line: cell-based. Further details: expressed in transfected cells; host or cells: HEK293-T. To be noted: for Emax: read-out: 5-HT2A (IP1) Emax (%5-HT).
A further series deals with C57BL/6J mice. The experiment in a line: Social interaction test after chronic social defeat stress (CSDS). As to conditions: one s.c. administration.
Series [6] concerns the target T3, human 5-HT1A. The experiment in a line: cell-based.
Series [7] is described as follows: Microsomal stability, human liver microsomes. The class given is in vitro ADME. As to conditions: versus the DMT analogs. The method, then:
Microsomal incubations were carried out in 96-well plates in 5 aliquots of 30 μL each (one for each time point). Liver microsomal incubation medium comprised of phosphate buffer (100 mM, pH 7.4), MgCl2 (3.3 mM), NADPH (3 mM), glucose-6-phosphate (5.3 mM), glucose-6 phosphate dehydrogenase (0.67 units/ml) with 0.42 mg of liver microsomal protein per ml. In the control reactions the NADPH-cofactor system was substituted with phosphate buffer. Test compounds (2 μM, final solvent concentration 1.6%) were incubated with microsomes at 37° C., shaking at 100 rpm. Each reaction was performed in duplicates. Five time points over 90 minutes were analyzed. The reactions were stopped by adding 5 volumes of methanol containing internal standard to incubation aliquots, followed by protein sedimentation by centrifuging at 5500 rpm for 4 minutes. Supernatants were analyzed using the HPLC system coupled with tandem mass spectrometer. The elimination constant (kel), half-life (t1/2) and intrinsic clearance (Clint) were determined in plot of […] versus time, using linear regression analysis.
Background: Microsomes from liver hold many membrane-bound enzymes, among them those of drug oxidation.

Series [8] has as its target T1, 5-HT1A. The series can be described thus: cell-based.
The target in series [9] is T2, 5-HT2A. The series can be described thus: cell-based.
The target in the next series is T4, 5-HT1A A365N (Homo sapiens, UniProt P08908, A365N).
T4 construct: expressed in transfected cells; host or cells: HEK293-T
T4 sequence (P08908 1-422 A365N): T3 sequence (P08908 1-422) with A365N
The experiment in a line: Gi1 BRET at mutant 5-HT1A A365N. The class given is cell-based. As to conditions: 5-HT1A A365N^6.55.

Another series concerns the target T5, 5-HT2A V366N (Homo sapiens, UniProt P28223, V366N).
T5 construct: expressed in transfected cells; host or cells: HEK293-T
The experiment in a line: Gq BRET at mutant 5-HT2A V366N. To be noted: mutant vs wildtype 5-HT2A. It counts as cell-based.

Series [10] can be described thus: Human plasma protein binding. It counts as in vitro ADME.
Series [11] is described as follows: Mouse plasma protein binding. The class given is in vitro ADME.

Where a chain is given by its changes, count along the chain named. Values joined by “and” are separate entries in the source; they are usually repeats but may differ in a detail not shown here. Identical values can stand only once. “Also recorded” adds a separate entry of the source. Like-named read-outs stand apart in the source and are kept apart here.

5-HT2B, sequence (P41595 whole entry, species assumed): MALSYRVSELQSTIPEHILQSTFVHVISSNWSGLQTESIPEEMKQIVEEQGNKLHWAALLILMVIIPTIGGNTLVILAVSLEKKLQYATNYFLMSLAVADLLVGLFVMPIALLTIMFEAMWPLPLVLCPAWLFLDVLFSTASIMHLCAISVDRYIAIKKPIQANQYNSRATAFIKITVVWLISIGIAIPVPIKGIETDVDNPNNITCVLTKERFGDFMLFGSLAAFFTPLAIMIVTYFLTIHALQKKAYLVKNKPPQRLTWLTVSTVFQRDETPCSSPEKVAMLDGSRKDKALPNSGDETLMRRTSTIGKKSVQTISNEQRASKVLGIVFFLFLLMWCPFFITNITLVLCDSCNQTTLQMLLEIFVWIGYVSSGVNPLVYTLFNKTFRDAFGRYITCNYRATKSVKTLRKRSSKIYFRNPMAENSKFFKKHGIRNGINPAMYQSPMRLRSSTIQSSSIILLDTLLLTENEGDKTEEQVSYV
T2 sequence (P28223 whole entry): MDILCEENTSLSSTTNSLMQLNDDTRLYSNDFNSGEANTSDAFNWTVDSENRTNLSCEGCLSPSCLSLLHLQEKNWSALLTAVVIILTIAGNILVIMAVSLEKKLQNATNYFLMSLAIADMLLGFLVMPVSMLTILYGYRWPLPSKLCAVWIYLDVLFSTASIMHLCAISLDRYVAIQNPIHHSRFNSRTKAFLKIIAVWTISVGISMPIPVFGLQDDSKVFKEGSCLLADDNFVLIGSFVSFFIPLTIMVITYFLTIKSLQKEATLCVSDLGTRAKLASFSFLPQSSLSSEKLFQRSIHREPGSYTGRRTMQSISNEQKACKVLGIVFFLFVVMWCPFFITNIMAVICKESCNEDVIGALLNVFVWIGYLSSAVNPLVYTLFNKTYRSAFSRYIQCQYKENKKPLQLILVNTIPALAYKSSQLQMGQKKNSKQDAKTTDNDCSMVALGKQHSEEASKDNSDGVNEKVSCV
T5 sequence (P28223 whole entry V366N): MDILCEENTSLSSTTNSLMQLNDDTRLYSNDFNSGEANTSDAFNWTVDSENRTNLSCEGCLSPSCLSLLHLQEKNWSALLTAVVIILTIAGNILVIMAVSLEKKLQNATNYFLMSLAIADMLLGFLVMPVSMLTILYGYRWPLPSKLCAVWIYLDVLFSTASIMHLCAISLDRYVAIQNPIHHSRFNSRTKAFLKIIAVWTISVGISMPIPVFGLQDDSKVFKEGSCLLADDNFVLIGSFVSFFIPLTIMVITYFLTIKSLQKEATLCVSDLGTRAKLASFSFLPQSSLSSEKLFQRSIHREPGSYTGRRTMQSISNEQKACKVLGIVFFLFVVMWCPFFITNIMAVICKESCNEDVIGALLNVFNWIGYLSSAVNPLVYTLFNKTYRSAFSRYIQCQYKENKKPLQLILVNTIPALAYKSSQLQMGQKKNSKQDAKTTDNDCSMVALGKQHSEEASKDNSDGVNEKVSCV

Regarding `NC(=O)N1c2ccccc2C=Cc2ccccc21` [Carbamazepine], in series [1], the “% Bound Mean” value is 88.2%, the “% Recovery” value was 72%, the “% Unbound” value is 11.8% and the fu is listed as 0.118. Also, the “% Compound remaining at 4 h” value in [1] (4 h) is on record as 96%. Moreover, in series [1] (replicate R1), the “% Bound R1” value is 89.0%.

`NCCc1c[nH]c2ccc(O)cc12` [Compound 5-HT, 5-hydroxytryptamine, reference compound]: on 5-HT1A [2] (Table 2), the “Normalized (%5HT) Top Mean BRET Gi1-1A” value is 100.0 %5HT. Also, the “Efficacy as %5HT 5-HT1A BRET Gi1” value at 5-HT1A [2] turned out to be 100.0 %5HT. Moreover, at 5-HT2A [3] (Table 2), the “Normalized (%5HT) Top Mean BRET Gq-2A” value turned out to be 100.0 %5HT. Further, the “Efficacy as %5HT 5-HT2A BRET Gq” value at 5-HT2A [3] came to 100.0 %5HT. For the same molecule, the “Normalized (%5HT) Top Mean Gio(cAMP) 1A” value on human 5-HT1A [4] (Table 2) is 100.0 %5HT. The “Efficacy as %5HT 5-HT1A cAMP” value at human 5-HT1A [4] (Table 6, commercial ligands) came to 100.0 %5HT.

As to `CCCN(C)CCc1c[nH]c2ccc(OC)cc12` [Compound 10, 5-MeO-MPT], the figures for the concentration for a half-maximal effect (EC50) on 5-HT2B and on 5-HT2A [5] were 100 nM and 79 nM, respectively. Besides, the Emax amounted to 61% at 5-HT2B and 89% at 5-HT2A [5].

For `CCCN(CCC)CCc1c[nH]c2ccc(OC)cc12` [Compound 13, 5-methoxy-N,N-dipropyl-tryptamine], at 5-HT2B, the EC50 was 76 nM and the Emax was determined as 108%. At 5-HT2A [5], the 50% effective concentration (EC50) was 82 nM and the Emax was determined as 94%.

For the molecule `CCN(C)CCc1c[nH]c2ccc(OC)c(F)c12` [Compound 26, N-ethyl-2-(4-fluoro-5-methoxy-1H-indol-3-yl)-N-methylethan-1-amine], the “general locomotion at the social interaction test” value in the series on C57BL/6J mice (mice) is “no effects on general locomotion”. In the series with C57BL/6J mice (stressed mice), the “corner time (anxiety-like behavior)” value is “rescued”. Moreover, the “social interaction deficit induced by chronic social defeat stress” value in the series with C57BL/6J mice (stressed mice, test 24 hr post drug, listed as 4-F, 5-MeO-MET) is reported as “rescued; also recorded: rescuing the social interaction deficit”. Also, the half-maximal effective concentration (EC50) was 0.316 nM at human 5-HT1A [6]; 66 nM at 5-HT2B; 230 nM on 5-HT2A [5]; 1.77 nM on 5-HT1A [8]; 99.3 nM on 5-HT2A [9]. Moreover, the “microsomal stability in human microsomes” value in series [7] is listed as “greater stability in human microsomes versus the DMT analogs”. Besides, the results for the Emax at 5-HT2B and at 5-HT2A [5] were 39% and 90%, respectively.

`CCCN(CC)CCc1c[nH]c2ccc(OC)c(F)c12` [Compound 29, N-ethyl-(2-(4-fluoro-5-methoxy-1H-indol-3-yl)ethyl)propan-1-amine]: the values for the half-maximal effective concentration (EC50) on human 5-HT1A [6], at 5-HT1A [8] and on 5-HT2A [9] were 0.151 nM, 0.95 nM and 155 nM, respectively. The “microsomal stability in human microsomes” value in series [7] is “greater stability in human microsomes versus the DMT analogs”.

For the molecule `C=CCN(C)CCc1c[nH]c2ccc(OC)c(F)c12` [Compound 34, N-(2-(4-fluoro-5-methoxy-1H-indol-3-yl)ethyl)-N-methylprop-2-en-1-amine], the EC50 on human 5-HT1A [6] came out at 2.57 nM; at 5-HT1A [8], 8.41 nM; at 5-HT2A [9], 156 nM. In addition, the “microsomal stability in human microsomes” value in series [7] is recorded as “greater stability in human microsomes versus the DMT analogs”.

Turning to `CN(C)CCc1c[nH]c2ccc(O)c(F)c12` [Compound 40, 3-(2-(dimethylamino)ethyl)-4-fluoro-1H-indol-5-ol], the concentration giving a half-maximal response (EC50) was 0.251 nM on human 5-HT1A [6]; 1.13 nM at 5-HT1A [2] (EC50 (nM), Gi1 BRET, 5-HT1A WT); 5.68 nM at 5-HT1A A365N (EC50 (nM), Gi1 BRET); 1.13 nM on 5-HT1A [8]; 7.46 nM on 5-HT2A [9]; 7.46 nM at 5-HT2A [9] (EC50 (nM), Gq BRET, 5-HT2A WT).

Regarding `CSc1ccc2[nH]cc(CCN(C)C)c2c1` [Compound 67, N,N-dimethyl-2-(5-(methylthio)-1H-indol-3-yl)ethan-1-amine], the 50% effective concentration (EC50) on human 5-HT1A [6] is 2.01 nM; on 5-HT1A [2] (EC50 (nM), Gi1 BRET, 5-HT1A WT), 11.7 nM; on 5-HT1A A365N (EC50 (nM), Gi1 BRET), 30.5 nM; on 5-HT1A A365N (pEC50, Gi1 BRET), 30.2 nM; on 5-HT1A [8], 11.7 nM; on 5-HT2A [9] it was 30.1 nM. On 5-HT2A [9] (EC50 (nM), Gq BRET, 5-HT2A WT), the EC50 came out at 30.1 nM.

For the molecule `CSc1ccc2[nH]cc(CCN3CCCC3)c2c1` [Compound 69, 5-(methylthio)-3-(2-(pyrrolidin-1-yl)ethyl)-1H-indole], the half-maximal effective concentration (EC50) on human 5-HT1A [6] is 0.51 nM and 0.501 nM; at 5-HT1A [2] (EC50 (nM), Gi1 BRET, 5-HT1A WT), 1.05 nM; at 5-HT1A A365N (EC50 (nM), Gi1 BRET) it was 5.08 nM; on 5-HT1A [8], 1.05 nM; on 5-HT2A [9], 175 nM; on 5-HT2A [9] (EC50 (nM), Gq BRET, 5-HT2A WT), 175 nM.

Regarding `CN(C)CCc1c[nH]c2ccccc12` [DMT], on 5-HT2A [3] (Gq BRET, 5-HT2A WT), the response was half-maximal at 94.4 nM (EC50) and the pEC50 entry is listed as “(7.03,”.

With `CCN(CC)C(=O)[C@@H]1C=C2c3cccc4[nH]cc(c34)C[C@H]2N(C)C1` [LSD, reference compound], on 5-HT2A V366N, the “effect of 5-HT2A V366N mutation on potency and efficacy” value is reported as “increase in signaling efficacy”. Further, the “Efficacy as %5HT 5-HT2A BRET Gq” value at 5-HT2A [3] amounted to 82.4 %5HT.

`COc1cc(CCN)cc(OC)c1OC` [Mescaline, reference compound] displayed an EC50 on 5-HT1A [2] (EC50 (nM) 5-HT1A BRET Gi1, Table 6, commercial ligands) of 19600 nM. Further, the “Efficacy as %5HT 5-HT1A BRET Gi1” value on 5-HT1A [2] was determined as 42.0 %5HT. Besides, on 5-HT2A [3], the “efficacy at 5-HT2A” value is listed as ~100 % of that of serotonin and the “Efficacy as %5HT 5-HT2A BRET Gq” value worked out at 92.6 %5HT. At 5-HT2A [3] (BRET, FIG. 33A), the “relative potency at 5-HT1A and 5-HT2A” value is listed as “more potent at 5-HT2A”. Besides, the concentration for a half-maximal effect (EC50) at 5-HT2A [9] (EC50 (nM) 5-HT2A BRET Gq, Table 6, commercial ligands) worked out at 2400 nM.

On to `CC(=O)CC(c1ccccc1)c1c(O)c2ccccc2oc1=O` (stereo not drawn) [Warfarin], for which the “% Recovery” value in [10] came to 108.1%. In addition, in [10] (4 h), the “% Compound remaining at 4 h” value is on record as 108.8%. Further, in series [11], the “% Recovery” value is on record as 90.9%, the “% Unbound” value was determined as 6.4% and the fu is given as 0.064. In addition, the “% Compound remaining at 4 h” value in [11] (4 h) is reported as 103.3%.

As to `CN(C)CCc1c[nH]c2cccc(O)c12` [psilocin, Psilocin], the “efficacy at 5-HT2A” value at 5-HT2A [3] was ~50 % of that of serotonin.
